Molecules are shown by their SMILES.

The source of these data is patent US4198424A, “Substituted 1-phenyl-2-pyrrolidin-2-yl-ethanols, their synthesis, their use and their compositions” (Byk Gulden Lomberg Chemische Fabrik GmbH, priority 1977, dated 1980).

Data set [1] can be described thus: Determination of the lethal effect (LD50, oral, mouse). The conditions noted are these: in vivo, per os, 48 hours observation. The procedure: The toxicity investigations were carried out on female NMRI mice: body weight 22 to 26 g. The animals received food and water (Altromin®) ad libitum. The substances to be tested were administered orally with the oesophageal sound as solutions of various concentration in a volume of from 10 to 20 ml/kg; 5 animals per dose were kept in Makrolon® cages, Type II. The observation duration was 48 hours. The DL50, the dose with which 50% of the animals died, was determined graphically from the dose effect curve.

Data set [2] relates to albino mice. Briefly: Writhing test (acetic acid writhing, analgesia, mouse). The conditions noted are these: po, per os; for ED40: *ED40 values, read-out: ED40 Writhing (values marked *); for ED50: dose reducing number of writhings by 50%. The format is in vivo. The procedure:
(c) Writhing test (acetic acid writhing): intraperitoneal injection of 0.2 ml/20 g mouse of a 0.75% strength acetic acid solution induces (in albino mice) a typical syndrome, called writhing, which proceeds over the body with dorsal flection. These writhings, which occur in the course of the first half hour after administration, are counted in the space of time of from 5 to 20 minutes after administration. The substances tested cause a reduction of the number of writhing syndromes. […] Literature: Koster, Anderson, Fed. Proc., 18 (1959) 42.

Data set [3] relates to albino mice. Briefly: Hot plate test (analgesia, mouse). The data set is classed as in vivo. The conditions noted are these: po, per os; for ED40: *ED40 values, read-out: ED40 Hot plate (values marked *); for ED50: dose prolonging reaction time by 50%. The procedure: (a) Hot plate test: female albino mice were placed on a 50° C. hot plate and the reaction time until they licked their paws was recorded with a stop watch. Normal values lie in the range of from 7 to 8 seconds. The substances tested cause delayed reaction to the heat stimulus, i.e. reduced thermal-pain sensitivity. The dose which prolongs the reaction time by 50% was determined. Literature: Eddy, N. B., and Leimbach, D., J. Pharmacol. Exp. Ther., 107 (1953) 385.

Data set [4] deals with albino mice. Briefly: Tail-Flick test (analgesia, mouse). The conditions noted are these: po, per os, dose prolonging reaction time by 50%. The data set is classed as in vivo. The procedure: (§1) (b) Tail-Flick test: a thermal pain is caused at the tail root of female albino mice or rats with a focused heat ray, and the time until the tail is drawn away is recorded with a stop watch. Normally, it lies in the range of from 4 to 5 seconds. The substances tested cause delayed reaction to the heat pain, i.e. reduced thermal-pain reaction. The dose which prolongs the reaction time by 50% was determined. Literature: D'Amour, F. E., and Smith, D. L., J. Pharmacol. Exp. Ther., 72 (1941) 74.

In another data set the test system is mice. Briefly: Withdrawal jumping of mice after treatment and intraperitoneal application of naloxone. The data set is classed as in vivo, mouse. The conditions noted are these: for withdrawal jumping after naloxone (in words): 200 mg/kg twice daily over 5 weekdays, naloxone 30 mg/kg i.p. 1 hour after last dose; for % of the animals reacting with "jumping": naloxone intraperitoneal, 3 and 6 given 200 mg/kg twice daily over 5 weekdays, NaCl control 20. The procedure:
(§2) According to Way et al. [J. Pharmacol. Exp. Ther., 167 (1969) 1] mice, which are dependent on analgesics with a morphine-like effect, react with withdrawal jumping immediately after intraperitoneal administration of naloxone. According to Saelens and co-workers [Arch. Int. Pharmacodyn. […] 2 cannot be tested accordingly because of its toxicity.
(§3) 3 and 6 were administered to mice [200 mg/kg twice daily over 5 weekdays].

A further data set deals with rats. Briefly: Tail-Flick test (analgesia, rat). The conditions noted are these: po, per os, dose prolonging reaction time by 50%. The data set is classed as in vivo. The procedure: as §1
The conditions of data set [5]: Saelens et al., Arch. Int. Pharmacodyn. Ther., 190 (1971) 213; cited from earlier work.
The nature of data set [6]: Withdrawal jumping of mice after treatment and intraperitoneal application of naloxone. The format is in vivo, mouse. The conditions noted are these: mouse, in vivo, not testable for jumping, read-out: lethality in withdrawal jumping test. The procedure: as §2, §3
In data set [7] the test system is albino mice. The experiment in a line: Tail-Flick test (analgesia, mouse). The data set is classed as in vivo. The conditions noted are these: po, per os, *ED40 values, read-out: ED40 Tail-Flick (values marked *).

`Cc1cccc([C@H](O)C[C@H]2CCCN2C)c1` (relative stereo) [Compound 8, (R*,R*)-1-(3-methylphenyl)-2-(1-methyl-2-pyrrolidinyl)-ethanol] returned an LD50 at 48 h in data set [1] of 320 mg/kg. The ED40 worked out at 75 mg/kg in the data set on albino mice [2] and 100 mg/kg in the data set on albino mice [3]. The 50% effect level with albino mice [4] (ED50) was put at a dose of 10 mg/kg.
Regarding `Cc1cccc(C(O)CC2CCCN2C)c1` (stereo not drawn) [Compound 6, 2-(1-methylpyrrolidin-2-yl)-1-(3-tolyl)ethanol], the 50% lethal dose (LD50) at 48 h in [1] was found to be 420 mg/kg. For the same compound, the “withdrawal jumping after naloxone (in words)” value with mice is reported as “did not lead to withdrawal jumping”. In addition, the “% of the animals reacting with "jumping"” value in the data set with mice amounted to 10%. Besides, the ED50 in the data set with albino mice [2] came out at 75 mg/kg; with rats, 10 mg/kg; with albino mice [3] it was 100 mg/kg; in the data set with albino mice [4], 35 mg/kg.
On to `CCC(=O)O[C@](Cc1ccccc1)(c1ccccc1)[C@H](C)CN(C)C` [Compound 1, dextropropoxyphene, reference compound], for which, in [1], the 50% lethal dose (LD50) at 48 h came out at 140 mg/kg. Also, the dependence development entry in data set [5] was “a dependence development is evidenced”. The “% of the animals reacting with "jumping"” value in the data set on mice is recorded as 100%. Besides, the ED50 in the data set on albino mice [2] came out at 30 mg/kg; with rats it was 25 mg/kg; with albino mice [3], 15 mg/kg; in the data set on albino mice [4], 25 mg/kg.
As for `CN1CCCC1CC(O)c1cccc(O)c1` (stereo not drawn) [Compound 10, 1-(3-hydroxyphenyl)-2-(1-methyl-2-pyrrolidinyl)-ethanol], the LD50 at 48 h in data set [1] was 420 mg/kg. In the data set on albino mice [2], this compound showed an ED50 of 125 mg/kg.
In [1], `CN1CCCC1CC(O)c1cccc(Cl)c1` (stereo not drawn) [Compound 11, 1-(3-chlorophenyl)-2-(1-methyl-2-pyrrolidinyl)-ethanol] registered an LD50 at 48 h of 330 mg/kg. For the same compound, the ED50 in the data set with albino mice [2] is 125 mg/kg; with albino mice [4], 65 mg/kg.
`Cc1cccc([C@H](O)C[C@@H]2CCCN2C)c1` (relative stereo) [Compound 7, (R*,S*)-1-(3-methylphenyl)-2-(1-methyl-2-pyrrolidinyl)-ethanol] gave an LD50 at 48 h in data set [1] of 300 mg/kg. Further, the ED40 in the data set with albino mice [2] was 75 mg/kg. The ED50 was found to be 100 mg/kg with albino mice [3] and 50 mg/kg in the data set with albino mice [4].
As to `COc1cccc([C@H](O)C[C@H]2CCCN2C)c1` (relative stereo) [Compound 5, (R*,R*)-1-(3-methoxyphenyl)-2-(1-methyl-2-pyrrolidinyl)ethanol], the LD50 at 48 h in data set [1] is 490 mg/kg. The ED50 in the data set with albino mice [2] was determined as 40 mg/kg; in the data set with albino mice [3], 50 mg/kg; in the data set on albino mice [4] it was 70 mg/kg.
In [1], `CN1CCOC(c2ccccc2)c2ccccc2C1` (stereo not drawn) [Compound 2, nefopam, reference compound] gave an LD50 at 48 h of 180 mg/kg. Further, the mortality in data set [6] was determined as 80%. For the same compound, the ED50 with albino mice [2] turned out to be 25 mg/kg; in the data set on rats, 10 mg/kg; in the data set on albino mice [3], 30 mg/kg; in the data set with albino mice [4], 20 mg/kg.
`CCCCCCN1CCCC1CC(O)c1cccc(OC)c1` (stereo not drawn) [Compound 12, 2-(1-n-hexyl-2-pyrrolidinyl)-1-(3-methoxyphenyl)-ethanol] displayed an LD50 at 48 h in data set [1] of 180 mg/kg. Also, the ED40 in the data set with albino mice [2] came out at 75 mg/kg. This compound displayed an ED50 in the data set on albino mice [4] of 70 mg/kg.
With `COc1cccc([C@@H](C[C@@H]2CCCN2C)OC(C)=O)c1` (relative stereo) [Compound 13, (R*,S*)-acetic acid-[1-(3-methoxyphenyl)-2-(1-methyl-2-pyrrolidinyl)-ethyl]-ester], the LD50 at 48 h in data set [1] came to 440 mg/kg. In addition, the ED40 in the data set with albino mice [2] came to 75 mg/kg.
In data set [1], `COc1cccc(C(O)CC2CCCN2C(C)C)c1` (stereo not drawn) [Compound 9, 2-(1-isopropyl-2-pyrrolidinyl)-1-(3-methoxyphenyl)ethanol] displayed an LD50 at 48 h of 340 mg/kg. In addition, the ED40 stood at 75 mg/kg with albino mice [7] and 100 mg/kg in the data set with albino mice [3]. The compound further registered an ED50 in the data set on albino mice [2] of 75 mg/kg.
`COc1cccc([C@H](O)C[C@@H]2CCCN2C)c1` (relative stereo) [Compound 4, (R*,S*)-1-(3-methoxyphenyl)-2-(1-methyl-2-pyrrolidinyl)-ethanol]: in data set [1], the LD50 at 48 h was found to be 420 mg/kg. Besides, the results for the ED50 in the data set on albino mice [2], with albino mice [3] and in the data set with albino mice [4] were 50 mg/kg, 100 mg/kg and 60 mg/kg, respectively.
With `COc1cccc(C(O)CC2CCCN2C)c1` (stereo not drawn) [Compound 3, 1-(3-methoxyphenyl)-2-(1-methylpyrrolidin-2-yl)-ethanol], in data set [1], the LD50 at 48 h is 600 mg/kg. Besides, the “withdrawal jumping after naloxone (in words)” value in the data set on mice is listed as “did not lead to withdrawal jumping”. Besides, the “% of the animals reacting with "jumping"” value in the data set with mice was found to be 20%. Further, the ED50 in the data set with albino mice [2] is 15 mg/kg; in the data set on rats, 7 mg/kg; in the data set on albino mice [3], 30 mg/kg; in the data set with albino mice [4], 25 mg/kg.
